# pIC50: −log10 of the molar value.
# How the values were obtained:
# human CB1 receptor [1] = molecular target: T1, human CB1 receptor (Homo sapiens, UniProt P21554); experiment: bioSensAll GAPL-Gi2 BRET biosensor assay in HEK293 cells transfected with hCB1; test compound added before EC75-80 of agonist CP55,940 (0.1 nM); type: cell-based; settings: vs CP55,940 0.1 nM (EC75-80), read-out: CB1 wt Gi2 IC50
# T1 construct: expressed in transfected cells; host or cells: HEK293
# In short: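 Test compounds at 12 doses up to 600 nM preceded a 0.1 nM CP55,940 challenge in hCB1/GAPL-Gi2 HEK293 cells. After overnight 37° C incubation, methoxy e-coelenterazine (2 µM final) was added and the 515/400 nm BRET ratio normalized to positive and negative controls.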
# human CB1 receptor [2] = molecular target: T1, human CB1 receptor; experiment: bioSensAll β-arrestin2 plasma membrane translocation (+GRK2) BRET biosensor assay in HEK293 cells transfected with hCB1; test compound added before EC75-80 of agonist CP55,940 (100 nM); type: cell-based; settings: βArrestin2 (+GRK2) BRET biosensor, vs CP55,940 100 nM (EC75-80), read-out: CB1 wt βarr2 IC50
# In short: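 HEK293 cells co-transfected with hCB1 and β-arrestin2 PM-translocation BRET biosensor (+GRK2); 48 h post-transfection in HBSS, test compound (0–600 nM, 12 points) added 3–5 min before CP55,940 at 100 nM (EC75-80). Overnight incubation at 37 °C; BRET (515/400 nm) read after 2 µM e-coelenterazine Prolume Purple, standardized to controls.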
# T1 sequence (P21554 whole entry): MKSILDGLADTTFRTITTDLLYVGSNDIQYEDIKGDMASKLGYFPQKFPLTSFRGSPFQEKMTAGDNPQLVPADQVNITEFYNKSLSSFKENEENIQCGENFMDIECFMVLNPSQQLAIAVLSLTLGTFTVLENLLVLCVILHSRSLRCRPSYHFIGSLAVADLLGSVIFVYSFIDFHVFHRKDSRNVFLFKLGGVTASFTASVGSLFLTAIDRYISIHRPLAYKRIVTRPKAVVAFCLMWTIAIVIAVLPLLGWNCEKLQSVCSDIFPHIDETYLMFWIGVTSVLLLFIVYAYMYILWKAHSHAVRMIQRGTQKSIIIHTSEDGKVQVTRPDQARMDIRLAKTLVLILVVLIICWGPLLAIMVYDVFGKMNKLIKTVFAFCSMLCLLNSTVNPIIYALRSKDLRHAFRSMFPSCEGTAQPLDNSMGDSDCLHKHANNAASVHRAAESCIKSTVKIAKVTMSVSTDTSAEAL
pIC50 (human CB1 receptor [1]),pIC50 (human CB1 receptor [2]),Structure (SMILES)
9.37,8.95,"C[C@@H](O)CN(C)c1nc(N2CCC(C)(C(N)=O)CC2)c2nc(-c3ccccc3Cl)n(-c3ccc(Cl)cc3)c2n1 [Compound 54, 1-[8-(2-chlorophenyl)-9-(4-chlorophenyl)-2-[[(2R)-2-hydroxypropyl]-methyl-amino]purin-6-yl]-4-methyl-piperidine-4-carboxamide]"
9.19,8.34,"C[C@H](O)CN(C)c1nc(N2CCC(C)(C(N)=O)CC2)c2nc(-c3ccccc3Cl)n(-c3ccc(Cl)cc3)c2n1 [Compound 55, 1-[8-(2-chlorophenyl)-9-(4-chlorophenyl)-2-[[(2S)-2-hydroxypropyl]-methyl-amino]purin-6-yl]-4-methyl-piperidine-4-carboxamide]"
9.08,8.27,"CC1(C(N)=O)CCN(c2nc(NCCO)nc3c2nc(-c2ccccc2Cl)n3-c2ccc(Cl)cc2)CC1 [Compound 56, 1-[8-(2-chlorophenyl)-9-(4-chlorophenyl)-2-(2-hydroxyethylamino)purin-6-yl]-4-methyl-piperidine-4-carboxamide]"
7.39,6.92,"Cc1cn(C)c(-c2nc3c(N4CCC(C)(C(N)=O)CC4)nc(N(C)CCO)nc3n2-c2ccc(Cl)cc2)n1 [Compound 57, 1-[9-(4-chlorophenyl)-8-(1,4-dimethylimidazol-2-yl)-2-[2-hydroxyethyl(methyl)amino]purin-6-yl]-4-methyl-piperidine-4-carboxamide]"
8.16,6.29,"CN(CCO)c1nc(N2CCC(C)(C(N)=O)CC2)c2nc(-c3cncn3C)n(-c3ccc(Cl)cc3)c2n1 [Compound 58, 1-[9-(4-chlorophenyl)-2-[2-hydroxyethyl(methyl)amino]-8-(3-methylimidazol-4-yl)purin-6-yl]-4-methyl-piperidine-4-carboxamide]"
< 5.30,< 5.30,"CC(C)n1cncc1-c1nc2c(N3CCC(C)(C(N)=O)CC3)nc(N(C)CCO)nc2n1-c1ccc(Cl)cc1 [Compound 59, 1-[9-(4-chlorophenyl)-2-[2-hydroxyethyl(methyl)amino]-8-(3-isopropylimidazol-4-yl)purin-6-yl]-4-methyl-piperidine-4-carboxamide]"
8.16,7.71,"CC(C)(C)OC(=O)NCCOc1nc(N2CCC(C)(C(N)=O)CC2)c2nc(-c3ccccc3Cl)n(-c3ccc(Cl)cc3)c2n1 [Compound 60, tert-butyl N-[2-[6-(4-carbamoyl-4-methyl-1-piperidyl)-8-(2-chlorophenyl)-9-(4-chlorophenyl)purin-2-yl]oxyethyl]carbamate]"
9.19,7.78,"CC1(C(N)=O)CCN(c2nc(OCCNS(C)(=O)=O)nc3c2nc(-c2ccccc2Cl)n3-c2ccc(Cl)cc2)CC1 [Compound 61, 1-[8-(2-chlorophenyl)-9-(4-chlorophenyl)-2-[2-(methanesulfonamido)ethoxy]purin-6-yl]-4-methyl-piperidine-4-carboxamide]"
8.21,8.12,"FC(F)(F)C1CCN(c2nc(OCCNCc3ccccc3)nc3c2nc(-c2ccccc2Cl)n3-c2ccc(Cl)cc2)CC1 [Compound 62, N-benzyl-2-[8-(2-chlorophenyl)-9-(4-chlorophenyl)-6-[4-(trifluoromethyl)-1-piperidyl]purin-2-yl]oxy-ethanamine]"
8.00,7.19,"CN(CCO)c1nc(N2CCC(C)(C(N)=O)CC2)c2nc(-c3ccccn3)n(-c3ccc(Cl)cc3)c2n1 [Compound 63, 1-[9-(4-chlorophenyl)-2-[2-hydroxyethyl(methyl)amino]-8-(2-pyridyl)purin-6-yl]-4-methyl-piperidine-4-carboxamide]"
8.61,7.55,"CN(CCO)c1nc(N2CCC(C)(C(N)=O)CC2)c2nc(-c3ccc(C#N)cn3)n(-c3ccc(Cl)cc3)c2n1 [Compound 64, 1-[9-(4-chlorophenyl)-8-(5-cyano-2-pyridyl)-2-[2-hydroxyethyl(methyl)amino]purin-6-yl]-4-methyl-piperidine-4-carboxamide]"
9.27,8.77,"CN(CCO)c1nc(N2CCC(C)(C(N)=O)CC2)c2nc(-c3ccc(C#N)nc3)n(-c3ccc(Cl)cc3)c2n1 [Compound 65, 1-[9-(4-chlorophenyl)-8-(6-cyano-3-pyridyl)-2-[2-hydroxyethyl(methyl)amino]purin-6-yl]-4-methyl-piperidine-4-carboxamide]"
9.23,8.84,"C[C@@H](CO)N(C)c1nc(N2CCC(C)(C(N)=O)CC2)c2nc(-c3ccccc3Cl)n(-c3ccc(Cl)cc3)c2n1 [Compound 66, 1-[8-(2-chlorophenyl)-9-(4-chlorophenyl)-2-[[(1S)-2-hydroxy-1-methyl-ethyl]-methyl-amino]purin-6-yl]-4-methyl-piperidine-4-carboxamide]"
8.90,8.36,"C[C@H](CO)N(C)c1nc(N2CCC(C)(C(N)=O)CC2)c2nc(-c3ccccc3Cl)n(-c3ccc(Cl)cc3)c2n1 [Compound 67, 1-[8-(2-chlorophenyl)-9-(4-chlorophenyl)-2-[[(1R)-2-hydroxy-1-methyl-ethyl]-methyl-amino]purin-6-yl]-4-methyl-piperidine-4-carboxamide]"
8.77,7.97,"CC1(C(N)=O)CCN(c2nc(S(C)(=O)=O)nc3c2nc(-c2ccccc2Cl)n3-c2ccc(Cl)cc2)CC1 [Compound 68, 1-[8-(2-chlorophenyl)-9-(4-chlorophenyl)-2-methylsulfonyl-purin-6-yl]-4-methyl-piperidine-4-carboxamide]"
7.38,6.93,"CCOC(=O)c1cn(-c2nc(N3CCC(C)(C(N)=O)CC3)c3nc(-c4ccccc4Cl)n(-c4ccc(Cl)cc4)c3n2)cn1 [Compound 69, ethyl 1-[6-(4-carbamoyl-4-methyl-1-piperidyl)-8-(2-chlorophenyl)-9-(4-chlorophenyl)purin-2-yl]imidazole-4-carboxylate]"
< 5.30,< 5.30,"CC1(C(N)=O)CCN(c2nc(C(=O)O)nc3c2nc(-c2ccccc2Cl)n3-c2ccc(Cl)cc2)CC1 [Compound 77, 6-(4-carbamoyl-4-methyl-1-piperidyl)-8-(2-chlorophenyl)-9-(4-chlorophenyl)purine-2-carboxylic acid]"
9.00,8.25,"CC1(C(N)=O)CCN(c2nc(OCCO)nc3c2nc(-c2ccccc2Cl)n3-c2ccc(Cl)cc2)CC1 [Compound 78, 1-[8-(2-chlorophenyl)-9-(4-chlorophenyl)-2-(2-hydroxyethoxy)purin-6-yl]-4-methyl-piperidine-4-carboxamide]"

Structure (SMILES),pIC50 (human CB1 receptor [1]),pIC50 (human CB1 receptor [2])
CN(CCO)c1nc(N2CC(C(N)=O)C2)c2nc(-c3ccccc3Cl)n(-c3ccc(Cl)cc3)c2n1 [Compound 72],8.96,8.42
CN(CCO)c1nc(N2CC(C)(C(N)=O)C2)c2nc(-c3ccccc3Cl)n(-c3ccc(Cl)cc3)c2n1 [Compound 73],9.25,8.75
CN(CCO)c1nc(N2CC(C)(O)C2)c2nc(-c3ccccc3Cl)n(-c3ccc(Cl)cc3)c2n1 [Compound 74],9.24,8.52
CN(CCO)c1nc(N2CC(C)(C#N)C2)c2nc(-c3ccccc3Cl)n(-c3ccc(Cl)cc3)c2n1 [Compound 75],9.40,9.08
COC1(C)CN(c2nc(N(C)CCO)nc3c2nc(-c2ccccc2Cl)n3-c2ccc(Cl)cc2)C1 [Compound 76],9.29,8.93
